Measured values published in patent US9394561B2, “Cyclic peptide production” (National Research Council of Canada, priority 2011, dated 2016).
Entries after “also recorded” stand apart in the source; their conditions may differ. Square brackets hold non-standard residues; d marks the D form. Ends that are not written are not given here.

Test system: S. vaccaria PCY1
Experiment: In vitro assay of recombinant S. vaccaria PCY1 with wild type and mutant presegetalin substrates, products detected by LC/MS
Type: biochemical, Saponaria vaccaria
Design: key to CP (cyclic peptide product detected by LC/MS after in vitro assay) / LP (linear peptide product detected by LC/MS after in vitro assay): +=presence; −=absence
Settings: for CP (cyclic peptide product detected by LC/MS after in vitro assay) / LP (linear peptide product detected by LC/MS after in vitro assay): substrates tested for cyclization by S. vaccaria PCY1; for cyclic peptide production by S. vaccaria PCY1 (in words) / linear peptide production by S. vaccaria PCY1 (in words): LC/MS and MS/MS
Method: The gene corresponding to S. vaccaria PCY1 was cloned and expressed in E. coli with a His-tag. HisPur Cobalt Resin™ (Thermo Scientific) was used for purification of recombinant PCY1. The purified PCY1 was quantified using BCA method (Pierce; http://http://www.piercenet.com/) with BSA as a calibration standard. The in vitro assay contained 20 mM Tris buffer (pH 8.5), 100 mM NaCl, 5 mM DTT, 0.2 mg BSA, and 1.5 μg of substrates (wild type and mutant presegetalins, procured from Bio Basic Inc with >90% purity) and was initiated by the addition of 0.3 μg of PCY1, in a total reaction volume of 100 μl. The assay was incubated at 30° C. for up to 1 h and stopped by placing reactions in dry ice. The assays were lyophilized, re-suspended in methanol, evaporated and re-suspended in 50:50 v/v methanol/water for LC/MS analysis.
Ion trap ESI+ LC/MS/MS analysis was used to detect production of cyclic peptides using an Agilent 6320 Ion Trap LC/MS system under default Smart Parameter settings. The analyzer and ion optics were adjusted to achieve proper resolution (Agilent Installation Guide #G2440-90105) using the ESI Tuning Mix (Agilent #G2431A). The mass spectrometer scanned from 50 to 2200 mass units at 8100 mass units sec^−1 with an expected peak width of 0.35 atomic mass units. For auto MS/MS, the trap isolation width was 4 atomic mass units. The associated Agilent 1200 LC was fitted with a Zorbax 300 EXTEND-C18 column (150×2.1 mm, 3.5 μm particle size) maintained at 35° C. The binary solvent system consisted of 90:10 v/v water/acetonitrile containing 0.1% formic acid and 0.1% ammonium formate (solvent A) and 10:90 v/v water/acetonitrile containing 0.1% formic acid and 0.1% ammonium formate (solvent B). The separation gradient was 90:10 A/B to 50:50 A/B in 3 ml over 20 min.
In order to characterize substrate specificity of PCY1 and understand the segetalin A biosynthetic mechanism, a total of 44 substrates (Table 3) were tested for the PCY1 activity and the results are briefly summarized in Table 3. The last two columns in Table 3 summarize product type detected by LC/MS after in vitro assays (CP is cyclic peptide and LP is linear peptide, +=presence, −=absence, NA=not applicable). The 44 substrates were classified as follows: • (A) Presegetalin A1 [14,32], a wild type (WT) precursor of segetalin A • (B) Truncated mutants of presegetalin A1[14,32] • (C) Alanine scanning mutants corresponding to variants of the mature segetalin A sequence • (D) Alanine scanning mutants of the C-terminal region of presegetalin A1[14,32] • (E) D-amino acid mutants corresponding to variants of the mature segetalin A sequence • (F) Insertion mutants corresponding to variants of the mature segetalin A sequence • (G) Other A-class and F-class presegetalins • (H) Putative cyclic peptide precursors from Dianthus caryophyllus

S. vaccaria PCY1, sequence (as listed by the source): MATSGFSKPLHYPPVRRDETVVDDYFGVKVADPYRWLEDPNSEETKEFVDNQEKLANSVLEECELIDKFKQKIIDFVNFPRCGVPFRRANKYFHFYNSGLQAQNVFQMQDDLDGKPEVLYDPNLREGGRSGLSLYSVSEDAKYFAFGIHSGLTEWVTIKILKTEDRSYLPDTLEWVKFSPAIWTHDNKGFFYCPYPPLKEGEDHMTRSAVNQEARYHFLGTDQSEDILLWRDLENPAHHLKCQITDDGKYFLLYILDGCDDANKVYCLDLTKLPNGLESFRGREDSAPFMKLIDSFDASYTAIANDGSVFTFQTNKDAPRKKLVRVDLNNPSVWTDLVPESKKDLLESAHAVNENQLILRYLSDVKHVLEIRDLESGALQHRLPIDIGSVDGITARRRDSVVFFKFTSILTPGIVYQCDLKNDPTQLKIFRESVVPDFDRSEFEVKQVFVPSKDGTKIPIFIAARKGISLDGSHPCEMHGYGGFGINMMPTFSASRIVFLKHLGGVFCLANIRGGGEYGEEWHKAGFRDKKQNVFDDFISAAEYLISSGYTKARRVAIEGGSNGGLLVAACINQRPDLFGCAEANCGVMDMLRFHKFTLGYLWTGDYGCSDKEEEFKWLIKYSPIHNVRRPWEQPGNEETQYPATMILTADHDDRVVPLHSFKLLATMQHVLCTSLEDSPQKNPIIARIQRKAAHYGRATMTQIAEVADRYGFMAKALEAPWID

## 28 (GVP[dV]WAFQAKDVENASAPV) [compound 28]
  CP (cyclic peptide product detected by LC/MS after in vitro assay): +
  LP (linear peptide product detected by LC/MS after in vitro assay): −

## 5 (GVPVWAF; Presegetalin A1[14,20]) [compound 5]
  CP (cyclic peptide product detected by LC/MS after in vitro assay): −
  LP (linear peptide product detected by LC/MS after in vitro assay): −

## 22 (GVPVWAFQAKDVENAAAPV; Presegetalin A1[14,32] S29A) [compound 22]
  cyclic peptide production by S. vaccaria PCY1 (in words): relatively higher amounts of segetalin A than that produced from WT substrate
  CP (cyclic peptide product detected by LC/MS after in vitro assay): +
  LP (linear peptide product detected by LC/MS after in vitro assay): +
Alanine scanning mutants of C-terminal region
  increase in segetalin A production relative to wild type presegetalin A1[14,32]: 30%

## 8 (GAPVWAFQAKDVENASAPV; Presegetalin A1[14,32] variant aa15 = alanine) [compound 8]
  CP (cyclic peptide product detected by LC/MS after in vitro assay): +
  LP (linear peptide product detected by LC/MS after in vitro assay): +

## 36 (GLSFAFPAKDAENASSPV; Presegetalin D1[14,31]) [compound 36]
  cyclic peptide production by S. vaccaria PCY1 (in words): cyclic peptide products were detected from all of them
  CP (cyclic peptide product detected by LC/MS after in vitro assay): +
  LP (linear peptide product detected by LC/MS after in vitro assay): +

## 15 (GVPVWAFQVKDVENASAPV; Presegetalin A1[14,32] A22V) [compound 15]
  CP (cyclic peptide product detected by LC/MS after in vitro assay): +
  LP (linear peptide product detected by LC/MS after in vitro assay): +

## 6 (GVPVWA; Presegetalin A1[14,19]) [compound 6]
  CP (cyclic peptide product detected by LC/MS after in vitro assay): −

## 24 (GVPVWAFQAKDVENASAAV; Presegetalin A1[14,32] P31A) [compound 24]
  cyclic peptide production by S. vaccaria PCY1 (in words): sensitive
  CP (cyclic peptide product detected by LC/MS after in vitro assay): +
  LP (linear peptide product detected by LC/MS after in vitro assay): +
Alanine scanning mutants of C-terminal region, FIG. 9
  segetalin A production, times lower than the WT substrate: 11 times

## 41 (FSASYSSKPIQTQVSNGMDNASAPV; Presegetalin F1[14,38]) [compound 41]
  cyclic peptide production by S. vaccaria PCY1 (in words): cyclic peptide products were detected from all of them
  CP (cyclic peptide product detected by LC/MS after in vitro assay): +
  LP (linear peptide product detected by LC/MS after in vitro assay): −

## 18 (GVPVWAFQAKDAENASAPV; Presegetalin A1[14,32] V25A) [compound 18]
  cyclic peptide production by S. vaccaria PCY1 (in words): relatively higher amounts of segetalin A than that produced from WT substrate
  CP (cyclic peptide product detected by LC/MS after in vitro assay): +
  LP (linear peptide product detected by LC/MS after in vitro assay): +

## 17 (GVPVWAFQAKAVENASAPV; Presegetalin A1[14,32] D24A) [compound 17]
  cyclic peptide production by S. vaccaria PCY1 (in words): sensitive
  CP (cyclic peptide product detected by LC/MS after in vitro assay): +
  LP (linear peptide product detected by LC/MS after in vitro assay): +

## 37 (GLSFAFQAKDAENASSPV; Presegetalin D1[14,31] P20Q) [compound 37]
  cyclic peptide production by S. vaccaria PCY1 (in words): resulted in a 5 amino acid cyclic peptide product
  CP (cyclic peptide product detected by LC/MS after in vitro assay): +
  LP (linear peptide product detected by LC/MS after in vitro assay): −

## 34 (GVPAAAVWAFQAKDVENASAPV; Presegetalin A1[14,32] ins 16AAA17) [compound 34]
  cyclic peptide production by S. vaccaria PCY1 (in words): produced the expected 9 amino acid cyclic peptide
  linear peptide production by S. vaccaria PCY1 (in words): linear peptide products
  CP (cyclic peptide product detected by LC/MS after in vitro assay): +
  LP (linear peptide product detected by LC/MS after in vitro assay): +

## Presegetalin A1[14,32]F20A (GVPVWAAQAKDVENASAPV; Presegetalin A1[14,32] F20A) [No. 13]
  linear peptide production by S. vaccaria PCY1 (in words): presence of linear peptide was confirmed by MS/MS analysis

## 9 (GVAVWAFQAKDVENASAPV; Presegetalin A1[14,32] variant aa16 = alanine) [compound 9]
  CP (cyclic peptide product detected by LC/MS after in vitro assay): +
  LP (linear peptide product detected by LC/MS after in vitro assay): +

## 29 (GVPV[dW]AFQAKDVENASAPV) [compound 29]
  CP (cyclic peptide product detected by LC/MS after in vitro assay): +
  LP (linear peptide product detected by LC/MS after in vitro assay): +

## 10 (GVPAWAFQAKDVENASAPV; Presegetalin A1[14,32] variant aa17 = alanine) [compound 10]
  CP (cyclic peptide product detected by LC/MS after in vitro assay): +
  LP (linear peptide product detected by LC/MS after in vitro assay): +

## 23 (GVPVWAFQAKDVENASVPV; Presegetalin A1[14,32] A30V) [compound 23]
  CP (cyclic peptide product detected by LC/MS after in vitro assay): +
  LP (linear peptide product detected by LC/MS after in vitro assay): +

## 21 (GVPVWAFQAKDVENVSAPV; Presegetalin A1[14,32] A28V) [compound 21]
  cyclic peptide production by S. vaccaria PCY1 (in words): sensitive
  CP (cyclic peptide product detected by LC/MS after in vitro assay): +
  LP (linear peptide product detected by LC/MS after in vitro assay): +

## 38 (GVKYAFQPKDSENASAPV; Presegetalin G1[14,31]) [compound 38]
  cyclic peptide production by S. vaccaria PCY1 (in words): cyclic peptide products were detected from all of them
  CP (cyclic peptide product detected by LC/MS after in vitro assay): +
  LP (linear peptide product detected by LC/MS after in vitro assay): −

## 43 (GPIPFYGFQAKDAENASVPV; - Dianthus Precursor A[14,33]) [compound 43]
  cyclic peptide production by S. vaccaria PCY1 (in words): small amount of cyclic peptide production
  CP (cyclic peptide product detected by LC/MS after in vitro assay): +
  LP (linear peptide product detected by LC/MS after in vitro assay): −

## 14 (GVPVWAFAAKDVENASAPV; Presegetalin A1[14,32] Q21A) [compound 14]
  cyclic peptide production by S. vaccaria PCY1 (in words): sensitive
  CP (cyclic peptide product detected by LC/MS after in vitro assay): +
  LP (linear peptide product detected by LC/MS after in vitro assay): +

## 33 (GVPAVWAFQAKDVENASAPV; Presegetalin A1[14,32] ins 16A17) [compound 33]
  cyclic peptide production by S. vaccaria PCY1 (in words): both detected
  linear peptide production by S. vaccaria PCY1 (in words): both detected
  CP (cyclic peptide product detected by LC/MS after in vitro assay): +
  LP (linear peptide product detected by LC/MS after in vitro assay): +

## 3 (GVPVWAFQAKDVENA; Presegetalin A1[14,28]) [compound 3]
  linear peptide production by S. vaccaria PCY1 (in words): almost equivalent to the linear peptide formed from the WT substrate
  CP (cyclic peptide product detected by LC/MS after in vitro assay): −
  LP (linear peptide product detected by LC/MS after in vitro assay): +

## 1 (GVPVWAFQAKDVENASAPV; listed as Saponaria vaccaria) [compound 1]
  cyclic peptide production by S. vaccaria PCY1 (in words): segetalin A and the linear form (linear peptide) of segetalin A were produced; also recorded: cyclic peptide products were detected from all of them
  CP (cyclic peptide product detected by LC/MS after in vitro assay): +
  LP (linear peptide product detected by LC/MS after in vitro assay): +
WT precursor, optimized assay condition
  PCY1 activity (total amount of segetalin A produced): 3 nmol/mg of protein/min

## 16 (GVPVWAFQAADVENASAPV; Presegetalin A1[14,32] K23A) [compound 16]
  cyclic peptide production by S. vaccaria PCY1 (in words): sensitive
  CP (cyclic peptide product detected by LC/MS after in vitro assay): +
  LP (linear peptide product detected by LC/MS after in vitro assay): +

## Presegetalin A1[14,32]W18w (GVPV[dW]AFQAKDVENASAPV) [No. 29]
  cyclic peptide production by S. vaccaria PCY1 (in words): relatively weakly converted to cyclic peptide

## 25 (GVPVWAFQAKDVENASAPA; Presegetalin A1[14,32] V32A) [compound 25]
  CP (cyclic peptide product detected by LC/MS after in vitro assay): +
  LP (linear peptide product detected by LC/MS after in vitro assay): +
